# Test results as given in article PMC4146346 (Journal of cellular physiology, 2012).
# Experiments:
# Assay in all cases: whole-cell patch clamp in HEK-293
# Type in all cases: cell-based
# [1] = biological target: CaV3.3 (α1I) (Homo sapiens, UniProt Q9P0X4)
# [2] = biological target: CaV3.2 (α1H) (Homo sapiens, UniProt O95180)
# [3] = biological target: CaV3.1 (α1G) (Homo sapiens, UniProt O43497)
# CaV3.1 (α1G), sequence (O43497 whole entry): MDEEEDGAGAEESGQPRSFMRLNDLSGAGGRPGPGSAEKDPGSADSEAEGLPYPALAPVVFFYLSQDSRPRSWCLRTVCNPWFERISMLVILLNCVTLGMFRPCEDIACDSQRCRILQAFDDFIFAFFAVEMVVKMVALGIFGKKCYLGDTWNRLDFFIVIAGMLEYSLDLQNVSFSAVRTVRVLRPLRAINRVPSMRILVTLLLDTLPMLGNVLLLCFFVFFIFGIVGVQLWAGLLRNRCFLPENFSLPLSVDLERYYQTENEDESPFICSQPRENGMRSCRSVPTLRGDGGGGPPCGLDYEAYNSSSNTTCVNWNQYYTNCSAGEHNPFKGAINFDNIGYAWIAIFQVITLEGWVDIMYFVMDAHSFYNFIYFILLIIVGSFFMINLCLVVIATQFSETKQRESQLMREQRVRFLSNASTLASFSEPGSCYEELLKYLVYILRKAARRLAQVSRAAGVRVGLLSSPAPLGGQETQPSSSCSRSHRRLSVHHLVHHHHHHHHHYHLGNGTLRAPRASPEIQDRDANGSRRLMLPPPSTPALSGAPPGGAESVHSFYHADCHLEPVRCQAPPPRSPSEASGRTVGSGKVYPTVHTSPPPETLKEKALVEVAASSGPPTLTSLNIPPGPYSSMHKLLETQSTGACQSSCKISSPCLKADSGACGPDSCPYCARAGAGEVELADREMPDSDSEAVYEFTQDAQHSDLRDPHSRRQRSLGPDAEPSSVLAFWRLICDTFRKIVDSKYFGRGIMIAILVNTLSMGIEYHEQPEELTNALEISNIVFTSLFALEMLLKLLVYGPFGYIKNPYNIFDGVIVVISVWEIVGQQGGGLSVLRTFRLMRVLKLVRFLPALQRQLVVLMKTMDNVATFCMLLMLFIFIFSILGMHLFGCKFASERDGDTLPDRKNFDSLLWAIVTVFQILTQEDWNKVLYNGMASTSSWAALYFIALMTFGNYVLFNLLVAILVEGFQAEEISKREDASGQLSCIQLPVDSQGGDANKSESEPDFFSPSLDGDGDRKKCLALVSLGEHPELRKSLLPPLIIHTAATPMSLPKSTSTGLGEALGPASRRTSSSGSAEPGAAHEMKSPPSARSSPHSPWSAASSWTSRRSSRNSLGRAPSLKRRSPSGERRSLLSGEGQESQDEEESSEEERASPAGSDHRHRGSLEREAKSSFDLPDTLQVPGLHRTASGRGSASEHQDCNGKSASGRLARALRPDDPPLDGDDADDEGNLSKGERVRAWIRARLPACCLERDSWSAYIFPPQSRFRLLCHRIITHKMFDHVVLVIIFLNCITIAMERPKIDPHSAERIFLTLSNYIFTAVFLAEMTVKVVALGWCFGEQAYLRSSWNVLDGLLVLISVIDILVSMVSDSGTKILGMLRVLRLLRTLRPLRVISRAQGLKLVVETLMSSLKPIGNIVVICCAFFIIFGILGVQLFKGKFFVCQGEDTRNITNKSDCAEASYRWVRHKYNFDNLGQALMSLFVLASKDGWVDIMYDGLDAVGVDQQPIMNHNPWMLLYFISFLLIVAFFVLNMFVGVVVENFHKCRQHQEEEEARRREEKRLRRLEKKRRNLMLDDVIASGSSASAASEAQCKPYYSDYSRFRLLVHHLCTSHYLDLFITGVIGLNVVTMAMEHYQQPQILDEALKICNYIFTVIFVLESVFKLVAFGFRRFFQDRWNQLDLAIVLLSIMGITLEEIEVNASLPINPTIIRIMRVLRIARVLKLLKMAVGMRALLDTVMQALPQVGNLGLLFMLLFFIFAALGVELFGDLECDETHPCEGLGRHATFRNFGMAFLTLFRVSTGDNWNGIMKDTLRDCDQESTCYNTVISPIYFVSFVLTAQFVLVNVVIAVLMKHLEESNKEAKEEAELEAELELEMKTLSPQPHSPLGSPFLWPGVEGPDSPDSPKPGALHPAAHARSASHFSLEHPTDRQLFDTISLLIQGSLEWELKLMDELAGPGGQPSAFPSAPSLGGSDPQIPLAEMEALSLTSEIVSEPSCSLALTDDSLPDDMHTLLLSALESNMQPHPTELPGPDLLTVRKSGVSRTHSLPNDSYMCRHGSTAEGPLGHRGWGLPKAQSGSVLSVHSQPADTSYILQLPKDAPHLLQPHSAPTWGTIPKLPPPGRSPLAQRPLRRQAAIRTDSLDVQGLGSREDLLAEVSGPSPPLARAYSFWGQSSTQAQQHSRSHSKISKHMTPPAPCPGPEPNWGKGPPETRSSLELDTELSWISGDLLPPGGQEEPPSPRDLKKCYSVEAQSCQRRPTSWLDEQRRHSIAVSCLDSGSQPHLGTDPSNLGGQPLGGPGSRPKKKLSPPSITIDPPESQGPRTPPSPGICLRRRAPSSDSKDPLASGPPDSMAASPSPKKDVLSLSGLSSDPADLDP
# CaV3.2 (α1H), sequence (O95180 whole entry): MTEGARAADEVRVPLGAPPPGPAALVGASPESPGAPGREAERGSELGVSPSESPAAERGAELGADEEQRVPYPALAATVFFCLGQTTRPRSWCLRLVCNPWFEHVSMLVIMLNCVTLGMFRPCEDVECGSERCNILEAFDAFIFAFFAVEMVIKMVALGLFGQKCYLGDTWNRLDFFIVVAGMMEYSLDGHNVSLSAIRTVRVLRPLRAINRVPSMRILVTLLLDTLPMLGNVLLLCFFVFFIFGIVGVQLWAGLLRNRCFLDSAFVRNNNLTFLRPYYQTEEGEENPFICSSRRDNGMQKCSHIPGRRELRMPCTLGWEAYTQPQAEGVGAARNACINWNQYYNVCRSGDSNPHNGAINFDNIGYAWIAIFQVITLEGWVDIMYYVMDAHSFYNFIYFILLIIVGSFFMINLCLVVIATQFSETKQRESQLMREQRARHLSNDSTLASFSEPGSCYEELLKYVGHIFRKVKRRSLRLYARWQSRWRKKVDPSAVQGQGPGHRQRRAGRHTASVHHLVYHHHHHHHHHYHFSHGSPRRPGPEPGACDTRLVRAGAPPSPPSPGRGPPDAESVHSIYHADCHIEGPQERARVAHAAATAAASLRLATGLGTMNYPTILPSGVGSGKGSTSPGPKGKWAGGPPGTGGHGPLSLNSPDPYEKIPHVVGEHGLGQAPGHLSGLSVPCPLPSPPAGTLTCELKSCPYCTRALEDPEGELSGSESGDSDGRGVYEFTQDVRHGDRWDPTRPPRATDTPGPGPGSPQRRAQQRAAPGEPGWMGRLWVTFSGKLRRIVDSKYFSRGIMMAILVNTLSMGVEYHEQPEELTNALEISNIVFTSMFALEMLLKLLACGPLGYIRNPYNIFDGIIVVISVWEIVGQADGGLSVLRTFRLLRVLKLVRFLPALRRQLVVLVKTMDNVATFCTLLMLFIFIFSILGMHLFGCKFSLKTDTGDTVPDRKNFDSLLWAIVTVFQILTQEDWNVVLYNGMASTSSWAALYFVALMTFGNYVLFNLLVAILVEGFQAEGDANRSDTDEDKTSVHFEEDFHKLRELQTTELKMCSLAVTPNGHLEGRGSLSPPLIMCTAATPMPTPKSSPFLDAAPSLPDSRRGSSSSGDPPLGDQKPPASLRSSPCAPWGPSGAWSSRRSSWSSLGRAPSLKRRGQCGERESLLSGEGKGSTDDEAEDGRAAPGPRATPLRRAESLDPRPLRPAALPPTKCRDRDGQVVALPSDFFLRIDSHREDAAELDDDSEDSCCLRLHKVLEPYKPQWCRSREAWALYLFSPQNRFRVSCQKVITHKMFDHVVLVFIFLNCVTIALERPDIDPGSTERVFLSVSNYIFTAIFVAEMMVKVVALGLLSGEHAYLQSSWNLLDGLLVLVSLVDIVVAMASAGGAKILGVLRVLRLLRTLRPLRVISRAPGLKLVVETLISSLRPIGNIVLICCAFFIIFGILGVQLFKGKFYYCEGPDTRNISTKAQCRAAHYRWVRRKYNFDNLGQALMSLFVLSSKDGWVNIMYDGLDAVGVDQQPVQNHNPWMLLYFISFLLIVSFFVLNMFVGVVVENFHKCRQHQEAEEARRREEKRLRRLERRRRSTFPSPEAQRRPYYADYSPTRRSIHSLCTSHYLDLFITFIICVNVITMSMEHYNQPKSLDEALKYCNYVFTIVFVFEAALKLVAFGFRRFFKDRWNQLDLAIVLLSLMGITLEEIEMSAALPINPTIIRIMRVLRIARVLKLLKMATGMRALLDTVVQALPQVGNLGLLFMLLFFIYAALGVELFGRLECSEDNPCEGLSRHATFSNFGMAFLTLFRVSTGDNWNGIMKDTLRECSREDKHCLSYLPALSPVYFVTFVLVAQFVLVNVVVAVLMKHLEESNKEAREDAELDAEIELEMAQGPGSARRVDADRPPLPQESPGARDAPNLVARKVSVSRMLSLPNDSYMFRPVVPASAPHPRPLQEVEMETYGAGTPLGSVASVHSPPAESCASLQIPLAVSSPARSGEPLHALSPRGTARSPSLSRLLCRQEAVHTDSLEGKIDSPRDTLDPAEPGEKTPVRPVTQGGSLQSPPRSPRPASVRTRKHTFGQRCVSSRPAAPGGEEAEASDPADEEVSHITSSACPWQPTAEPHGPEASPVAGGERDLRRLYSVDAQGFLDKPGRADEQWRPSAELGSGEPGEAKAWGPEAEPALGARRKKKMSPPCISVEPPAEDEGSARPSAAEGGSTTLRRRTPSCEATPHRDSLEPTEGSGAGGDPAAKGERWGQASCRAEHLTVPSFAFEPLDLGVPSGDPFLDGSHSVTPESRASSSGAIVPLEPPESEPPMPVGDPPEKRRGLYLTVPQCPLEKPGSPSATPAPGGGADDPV
structure (smiles),measurement,setting,value
"O=C(O)c1cccnc1Nc1cccc(C(F)(F)F)c1 [NA, 2-{[3-(trifluoromethyl)phenyl]amino}-pyridine-3-carboxylic acid]",Kd,[1],137 µM
same,Kd,[2],192 µM
same,Kd,[3],78.4 µM
